The source of these data is ChEMBL document CHEMBL5143688, “A kind of HIV-1 protease inhibitors containing phenols with antiviral activity against DRV-resistant variants” (Bioorg Med Chem, 2022).

Broadly, the pIC50 is −log10 of the IC50, conventionally taken in molar units. The low end stands for a large IC50, the high end for a small IC50. For orientation: CC50 means the concentration that lowers cell viability or growth by half. As usually defined, the inhibition is the change of the read-out against control, counted positive when it falls. One may read the pEC50 as −log10 of the EC50, conventionally taken in molar units.

Data set [1] concerns the target Human immunodeficiency virus type 1 protease (Human immunodeficiency virus 1, UniProt Q72874). As to the kind of experiment: Inhibition of HIV1 protease expressed in Escherichia coli using Arg-Glu (EDANS)-Ser-Gln-Asn-Tyr-Pro-Ile-Val-Gln-Lys(DABCYL)-Arg as substrate preincubated for 20 to 30 mins followed by substrate addition and measured for 10 mins by FRET assay.

The next data set concerns HIV1 protease. As to the kind of experiment: Selectivity index, ratio of CC50 for HEK293T cells to IC50 for inhibition of HIV1 protease expressed in Escherichia coli. It is filed as toxicity. To be noted: human, read-out: Ratio CC50/IC50.
A short description of data set [2]: Cytotoxicity against HEK293T cells assessed as reduction in cell viability measured after 24 hrs by CCK8 assay. Format: toxicity, cell-based, HEK-293T. To be noted: human.
The test system of data set [3] is Human immunodeficiency virus 1. As to the kind of experiment: Antiviral activity against HIV1 NL4-3 VSV-G pseudotyped virus infected in human SUP-T1 cells assessed as inhibition of late stage viral production at 10 uM pretreated for 48 hrs followed by viral infection and measured after 48 hrs by luciferase assay relative to control. Format: functional. To be noted: Human immunodeficiency virus 1, NL4-3, SUP-T1, time 96 hrs.

Data set [4] concerns Human immunodeficiency virus 1. As to the kind of experiment: Antiviral activity against HIV1 NL4-3 VSV-G pseudotyped virus infected in human SUP-T1 cells assessed as inhibition of late stage viral production at 100 nM pretreated for 48 hrs followed by viral infection and measured after 48 hrs by luciferase assay relative to control. As to conditions: Human immunodeficiency virus 1, NL4-3, SUP-T1, time 96 hrs. It is filed as functional.

In data set [5] the test system is Human immunodeficiency virus 1. As to the kind of experiment: Antiviral activity against wild-type HIV1 NL4-3 VSV-G pseudotyped virus infected in human SUP-T1 cells assessed as inhibition of late stage viral production pretreated with viral infected SUP-T1 cells for 48 hrs followed by reinfection in TZM-bl cells by luciferase reporter gene assay. Format: functional, organism-based. As to conditions: Human immunodeficiency virus 1, NL4-3, SUP-T1.

Data set [6] deals with Human immunodeficiency virus 1. As to the kind of experiment: Antiviral activity against DRV-resistant HIV1 NL4-3 VSV-G pseudotyped virus infected in human SUP-T1 cells assessed as inhibition of late stage viral production pretreated for 48 hrs followed by viral infection and measured after 48 hrs by luciferase assay. To be noted: Human immunodeficiency virus 1, NL4-3, SUP-T1. Format: functional, organism-based.

Data set [7] relates to Human immunodeficiency virus 1. The experiment in a line: Antiviral activity against HIV1 NL4-3 VSV-G pseudotyped virus infected in human SUP-T1 cells assessed as inhibition of early stage viral production at 10 uM measured after 48 hrs by luciferase assay relative to control. It is filed as functional. To be noted: Human immunodeficiency virus 1, NL4-3, SUP-T1.
The nature of data set [8]: Selectivity ratio of EC50 for antiviral activity against DRV-resistant HIV1 NL4-3 VSV-G pseudotyped virus infected in human SUP-T1 cells to EC50 for antiviral activity against wild-type HIV1 NL4-3 VSV-G pseudotyped virus infected in human SUP-T1 cells. It is filed as functional, Human immunodeficiency virus 1.

pEC50, pIC50: −log10 of the molar value. Some results are limits rather than exact numbers.

`CC(C)CN(C[C@@H](O)[C@H](Cc1ccccc1)NC(=O)c1cc(O)c(O)c(O)c1)S(=O)(=O)c1ccc([N+](=O)[O-])cc1` showed a pIC50 in data set [1] of 9.14. For the same compound, the selectivity ratio with HIV1 protease was greater than 137000. Besides, the CC50 at 24 h in data set [2] is greater than 100000 nM.
On to `COc1ccc(C(=O)N[C@@H](Cc2ccccc2)[C@H](O)CN(CC(C)C)S(=O)(=O)c2ccc(C(F)(F)F)cc2)c(O)c1`, for which the negative logarithm of the IC50 (pIC50) in [1] was 7.79.
In [1], `COc1cc(C(=O)N[C@@H](Cc2ccccc2)[C@H](O)CN(CC(C)C)S(=O)(=O)c2ccc(C(F)(F)F)cc2)cc(OC)c1O` had a pIC50 of 8.08.
For `COc1cc(C(=O)N[C@@H](Cc2ccccc2)[C@H](O)CN(CC(C)C)S(=O)(=O)c2ccc([N+](=O)[O-])cc2)cc(OC)c1O`, the negative-log IC50 (pIC50) in data set [1] is 9.10. Further, the selectivity ratio in the data set with HIV1 protease was greater than 127000. In addition, in data set [2], the 50% cytotoxic concentration (CC50) at 24 h was greater than 100000 nM.
The like results for `CC(C)CN(C[C@@H](O)[C@H](Cc1ccccc1)NC(=O)c1ccc(O)c(O)c1)S(=O)(=O)c1ccc([N+](=O)[O-])cc1` were, in that order, 9.60, 142000 and 35600 nM.
Turning to `CC(C)CN(C[C@@H](O)[C@H](Cc1ccccc1)NC(=O)c1ccc(O)cc1O)S(=O)(=O)c1ccc(C(F)(F)F)cc1`, the pIC50 in data set [1] was 8.05.
Turning to `CC(C)CN(C[C@@H](O)[C@H](Cc1ccccc1)NC(=O)c1cc(O)cc(O)c1)S(=O)(=O)c1ccc([N+](=O)[O-])cc1`, in data set [1], the negative logarithm of the IC50 (pIC50) is 10.19. For the same compound, the selectivity ratio with HIV1 protease worked out at 1.34e+06. For the same compound, in [2], the 50% cytotoxic concentration (CC50) at 24 h amounted to 86900 nM.
Turning to `CC(C)CN(C[C@@H](O)[C@H](Cc1ccccc1)NC(=O)c1ccccc1O)S(=O)(=O)c1ccc(F)cc1`, the negative-log IC50 (pIC50) in data set [1] was 8.69. Moreover, in data set [3], the inhibition at 10 µM is 92.6%. The selectivity ratio with HIV1 protease was greater than 49000. In addition, the CC50 at 24 h in [2] is greater than 100000 nM.
`COc1cc(O)c(C(=O)N[C@@H](Cc2ccccc2)[C@H](O)CN(CC(C)C)S(=O)(=O)c2ccc([N+](=O)[O-])cc2)cc1OC` gave a pIC50 in data set [1] of 7.86.
In turn, `CC(C)CN(C[C@@H](O)[C@H](Cc1ccccc1)NC(=O)c1cc(O)c(O)c(O)c1)S(=O)(=O)c1ccc(C(F)(F)F)cc1` had a negative logarithm of the IC50 (pIC50) in data set [1] of 9.48. Also, in the data set on HIV1 protease, the selectivity ratio was greater than 303000. Moreover, the CC50 at 24 h in data set [2] is greater than 100000 nM.
In turn, `CC(C)CN(C[C@@H](O)[C@H](Cc1ccccc1)NC(=O)c1cc(O)cc(O)c1)S(=O)(=O)c1ccc(C(F)(F)F)cc1` had a pIC50 in data set [1] of 10.11. Moreover, the selectivity ratio in the data set with HIV1 protease was greater than 1.28e+06. Further, in data set [2], the CC50 at 24 h is greater than 100000 nM.
Regarding `CC(C)CN(C[C@@H](O)[C@H](Cc1ccccc1)NC(=O)O[C@H]1CO[C@H]2OCC[C@H]21)S(=O)(=O)c1ccc(N)cc1`, in data set [4], the inhibition at 0.1 µM was 100%. Besides, the pEC50 was 8.60 in [5] and 7.00 in data set [6].
In turn, `COc1cc(C(=O)N[C@@H](Cc2ccccc2)[C@H](O)CN(CC(C)C)S(=O)(=O)c2ccc(F)cc2)cc(OC)c1O` gave a pIC50 in [1] of 9.49. Further, the inhibition at 10 µM in data set [3] came to 84.2%. Further, the selectivity ratio in the data set with HIV1 protease was greater than 312000. The CC50 at 24 h in data set [2] is greater than 100000 nM.
With `CC(C)CN(C[C@@H](O)[C@H](Cc1ccccc1)NC(=O)c1ccc(O)c(O)c1)S(=O)(=O)c1ccc(C(F)(F)F)cc1`, in [1], the pIC50 is 10.11. Further, the selectivity ratio with HIV1 protease was 496000. For the same compound, in data set [2], the CC50 at 24 h turned out to be 38200 nM.
As to `CC(C)CN(C[C@@H](O)[C@H](Cc1ccccc1)NC(=O)c1ccc(Cl)cc1O)S(=O)(=O)c1ccc(C(F)(F)F)cc1`, the pIC50 in [1] is 8.21.
Still for that read-out and setting: to `CC(C)CN(C[C@@H](O)[C@H](Cc1ccccc1)NC(=O)c1ccc(Cl)cc1O)S(=O)(=O)c1ccc([N+](=O)[O-])cc1` belongs 8.00.
Still for that read-out and setting: to `COc1ccc(C(=O)N[C@@H](Cc2ccccc2)[C@H](O)CN(CC(C)C)S(=O)(=O)c2ccc([N+](=O)[O-])cc2)c(O)c1` belongs 7.90.
In [1], `CC(C)CN(C[C@@H](O)[C@H](Cc1ccccc1)NC(=O)c1ccc(O)cc1O)S(=O)(=O)c1ccc(F)cc1` showed a pIC50 of 9.20. In data set [3], the inhibition at 10 µM came to 99.4%. Further, the selectivity ratio in the data set on HIV1 protease was greater than 159000. Also, in data set [2], the CC50 at 24 h is greater than 100000 nM.
As for `CC(C)CN(C[C@@H](O)[C@H](Cc1ccccc1)NC(=O)c1ccccc1O)S(=O)(=O)c1ccc(C(F)(F)F)cc1`, the pIC50 in data set [1] was 7.64.
As to `CC(C)CN(C[C@@H](O)[C@H](Cc1ccccc1)NC(=O)c1ccc(O)cc1O)S(=O)(=O)c1ccc([N+](=O)[O-])cc1`, the negative-log IC50 (pIC50) in data set [1] is 8.62. The selectivity ratio in the data set on HIV1 protease is greater than 41300. In data set [2], the half-maximal cytotoxic concentration (CC50) at 24 h was greater than 100000 nM.
In [1], `COc1ccc(C(=O)N[C@@H](Cc2ccccc2)[C@H](O)CN(CC(C)C)S(=O)(=O)c2ccc(F)cc2)c(O)c1` showed a negative-log IC50 (pIC50) of 8.08. Besides, in data set [3], the inhibition at 10 µM stood at 82.2%.
The like results for `CC(C)CN(C[C@@H](O)[C@H](Cc1ccccc1)NC(=O)c1ccc(Cl)cc1O)S(=O)(=O)c1ccc(F)cc1` were, in that order, 8.16 and 97.4%.
In data set [1], `COc1cc(O)c(C(=O)N[C@@H](Cc2ccccc2)[C@H](O)CN(CC(C)C)S(=O)(=O)c2ccc(C(F)(F)F)cc2)cc1OC` gave a pIC50 of 7.94.
Take `CC(C)CN(C[C@@H](O)[C@H](Cc1ccccc1)NC(=O)c1ccc(O)c(O)c1)S(=O)(=O)c1ccc(F)cc1`: in data set [1], the pIC50 was 10.12. For the same compound, the inhibition at 10 µM is 100% in data set [3] and 12.5% in [7]. For the same compound, the selectivity ratio in the data set on HIV1 protease came out at 768000. In addition, the pEC50 in data set [5] is 6.44; in [6], 5.66. Further, the 50% cytotoxic concentration (CC50) at 24 h in data set [2] was determined as 57600 nM. The “Ratio EC50” value in data set [8] is 6.06.
In data set [1], `CC(C)CN(C[C@@H](O)[C@H](Cc1ccccc1)NC(=O)c1cc(O)cc(O)c1)S(=O)(=O)c1ccc(F)cc1` had a pIC50 of 10.68. In addition, the inhibition at 10 µM came to 100% in data set [3] and 2.6% in data set [7]. Moreover, the selectivity ratio in the data set on HIV1 protease was greater than 4.76e+06. In addition, the figures for the negative-log EC50 (pEC50) in data set [5] and in [6] were 6.13 and 6.21, respectively. In addition, in [2], the CC50 at 24 h was greater than 100000 nM. For the same compound, the “Ratio EC50” value in data set [8] worked out at 0.82.
Consider `CC(C)CN(C[C@@H](O)[C@H](Cc1ccccc1)NC(=O)c1ccccc1O)S(=O)(=O)c1ccc([N+](=O)[O-])cc1`, for which, in data set [1], the negative logarithm of the IC50 (pIC50) is 7.88.
In [1], `COc1cc(O)c(C(=O)N[C@@H](Cc2ccccc2)[C@H](O)CN(CC(C)C)S(=O)(=O)c2ccc(F)cc2)cc1OC` had a pIC50 of 7.94. This pIC50 and that of the compound before are within 0.2 log units of each other.
